# Source: patent US10106582B2, “Complex-formation-modulating agents and uses therefor” (Factor Therapeutics Limited, priority 2012, dated 2018)
# System: MCF-7 cells
# Test: 3D Matrigel growth assay of MCF-7 tumor spheroids
# Assay type: cell-based, human
# From the text: FIG. 7 is a photographic and graphical representation showing MCF-7 3D cell growth in response to peptide antagonists. MCF-7 cells suspended in media containing 1% serum and 2.5% Matrigel (Matrigel media) were layered onto a thin layer of 100% Matrigel. Spheroids were allowed to form in Matrigel media containing VN, TRI or TRI supplemented with peptides P7 and P8. Cells were allowed to grow for 14 days with media+proteins changed every 3 days. (A) Phase contrast and fluorescence microscopy was used to obtain images of the spheroids treated with 90 nM P7, P8 or P7+8. The fluorescent images were subjected to analysis using Image J to calculate spheroid sizes. The images post-ImageJ analyses are depicted in the bottom panel of A. All the images depicted are representative images obtained from triplicate experiments with treatments tested in duplicates in each replicate experiment. Scale bar denotes 100 μm. (B) Scatter plot depicts mean spheroid size (μm^2) at Day 14 for each treatment, calculated using Image-J (90 nM peptide treatments are depicted here). Each data point in the graph is the average size of all spheroids present in a single field of view at 40× magnification. ** denotes p<0.01 and * denotes p<0.05. (C) To measure cell viability/proliferation the 3D culture was treated on Day 14 with 5% Alamar Blue dye for 4 hours and fluorescence intensities were recorded. Error bars indicate SEM. ** denotes p<0.01 Vs TRI and * denotes p<0.05 Vs TRI. The experiment was repeated twice with treatments tested in duplicate wells in each replicate experiment. TRI=IGF-I:IGFBP-5:VN trimeric complex (equimolar at 10 nM concentrations).
# To closely mimic in vivo conditions, cells were grown in a 3D matrix (Matrigel) closely resembling in vivo extracellular matrix physiology. MCF-7 cells suspended in growth media containing 1% serum and 2.5% Matrigel (Matrigel media) were layered onto a thin layer of 100% Matrigel. Tumor spheroids were allowed to form for 3 days after which spent media was replenished with Matrigel media containing VN only, trimeric complex, or trimeric complex supplemented with increasing concentrations of peptides (P7, P8 or P7+P8). Cells were allowed to grow for additional 11 days with media+proteins changed every 3 days. Spheroid morphology was assessed using phase-contrast microscopy and cell viability was measured using AlamarBlue, a fluorescent metabolic dye.
sequence,measurement,setting,value
"LFSSEESNLGANNYDDYRMDWL (listed as Homo sapiens) [Peptide P7, human VN motif 7 mimic]",TRI-stimulated cell viability (AlamarBlue),"90 nM peptide, Day 14, 3D Matrigel culture",significantly inhibit
same,Size of TRI-treated tumor spheroids (phase-contrast microscopy),"increasing concentrations of peptides, Matrigel 3D culture, 14 days",decrease with increasing concentrations
